Values of other authors as cited in article PMC2898477, “High-quality crystals of human haematopoietic prostaglandin D synthase with novel inhibitors” (2010).

Molecular target: T1, haematopoietic prostaglandin D synthase (H-PGDS) (Homo sapiens, UniProt O60760)
T1 construct: gene HPGDS
Test: co-crystallization and X-ray diffraction of the complex ([…] Å, P1); IC50 cited from Aritake et al. […]
Assay type: biochemical

T1 sequence (O60760 whole entry): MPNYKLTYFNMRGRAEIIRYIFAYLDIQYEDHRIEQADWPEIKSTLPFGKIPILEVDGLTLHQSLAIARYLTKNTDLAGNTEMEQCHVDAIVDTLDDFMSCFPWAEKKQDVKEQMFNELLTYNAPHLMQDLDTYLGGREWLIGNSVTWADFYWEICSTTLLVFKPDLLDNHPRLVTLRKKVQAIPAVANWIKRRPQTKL

c1ccc(C(OC2CCN(CCCc3nnn[nH]3)CC2)c2ccccc2)cc1 [HQL-79, 4-benzhydryloxy-1-[3-(1H-tetrazol-5-yl)-propyl]-piperidine]
IC50: 5.9 µM
